Results: US20230085307A1, “PYRIDAZINONE COMPOUND AND HERBICIDE” (NISSAN CHEMICAL CORPORATION, priority 2019, published 2023)

What was measured:
Japanese bulrush [1] = experiment: Test Example 2: herbicidal activity, application during weed generation under submerged conditions (Table 17, symbol B); type: in vivo, Japanese bulrush (Schoenoplectus juncoides); conditions: AAH 320 g/ha; application during weed generation, submerged conditions
Outline: (§1)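 Effect on each weed is rated three weeks post-treatment, using the same scoring criteria as the preceding test. Plants grow from mixed-sown seed in flooded alluvial soil (4 cm water) at 25° C. to 30° C., and are treated at one to two leaves with diluted emulsion dropped onto the water.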

southern crabgrass = experiment: Test Example 5: herbicidal effect by foliage application, plastic box (Table 20, symbol F); type: in vivo, southern crabgrass (Digitaria ciliaris); conditions: foliage application, 320 g/ha, 3 weeks after application
Outline: (§2)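 Foliar spray test: emulsion formulation diluted in water to a set application rate, sprayed onto 14-day-old plants raised in diluvial soil at 25° C to 30° C under glass. Both herbicidal effect and crop effect rated visually three weeks later.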

green foxtail [2] = experiment: Test Example 5: herbicidal effect by foliage application, plastic box (Table 20, symbol G); type: in vivo, green foxtail (Setaria viridis); conditions: foliage application, 320 g/ha, 3 weeks after application
Outline: as §2

Japanese bulrush [3] = experiment: Test Example 1: herbicidal activity, application before weed generation under submerged conditions (Table 16, symbol B); type: in vivo, Japanese bulrush (Schoenoplectus juncoides); conditions: 320 g/ha applied herbicide
Outline: (§3)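 Submerged Wagner pots (alluvial soil, 4 cm water) sown with weed seeds and planted with 2.5-leaf rice seedlings; emulsifiable concentrate diluted in water applied to water surface on sowing day. Held in greenhouse at 25-30 °C; injury scored 0-5 by herbicidal rate after three weeks.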

oval-leafed pondweed [4] = experiment: Test Example 2: herbicidal activity, application during weed generation under submerged conditions (Table 17, symbol C); type: in vivo, oval-leafed pondweed (Monochoria vaginalis); conditions: AAH 320 g/ha; application during weed generation, submerged conditions
Outline: as §1

velvetleaf [5] = experiment: Test Example 5: herbicidal effect by foliage application, plastic box (Table 20, symbol M); type: in vivo, velvetleaf (Abutilon theophrasti); conditions: foliage application, 320 g/ha, 3 weeks after application
Outline: as §2

oval-leafed pondweed [6] = experiment: Test Example 1: herbicidal activity, application before weed generation under submerged conditions (Table 16, symbol C); type: in vivo, oval-leafed pondweed (Monochoria vaginalis); conditions: 320 g/ha applied herbicide
Outline: as §3

persian speedwell [7] = experiment: Test Example 4: herbicidal effect by soil treatment (Table 19, symbol R); type: in vivo, Persian speedwell (Veronica persica); conditions: 320 g/ha
Outline: (§4)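 Step 1: sow seeds in sterilized diluvial soil, cover ~1.5 cm. Step 2: spray diluted emulsion onto soil surface at predetermined rate. Step 3: greenhouse, 25–30° C, three weeks. Step 4: grade effect on each plant by earlier criteria.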

barnyard grass [8] = experiment: Test Example 4: herbicidal effect by soil treatment (Table 19, symbol H); type: in vivo, barnyard grass (Echinochloa crus-galli); conditions: 320 g/ha
Outline: as §4

barnyard grass [9] = experiment: Test Example 3: herbicidal effect by foliage application, Wagner pot (Table 18, symbol H); type: in vivo, barnyard grass (Echinochloa crus-galli); conditions: 320 g/ha
Outline: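 Plants were sown in alluvial soil held under 0.1–0.5 cm standing water and grown 14 days in a greenhouse at 25–30 °C. An emulsifiable formulation, water-diluted to the set dose, was then sprayed onto the foliage, and effects were scored three weeks later using previously defined criteria.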

redroot pigweed = experiment: Test Example 4: herbicidal effect by soil treatment (Table 19, symbol N); type: in vivo, redroot pigweed (Amaranthus retroflexus); conditions: 320 g/ha
Outline: as §4

velvetleaf [10] = experiment: Test Example 4: herbicidal effect by soil treatment (Table 19, symbol M); type: in vivo, velvetleaf (Abutilon theophrasti); conditions: 320 g/ha
Outline: as §4

blackgrass [11] = experiment: Test Example 4: herbicidal effect by soil treatment (Table 19, symbol J); type: in vivo, blackgrass (Alopecurus myosuroides); conditions: 320 g/ha
Outline: as §4

windgrass = experiment: Test Example 5: herbicidal effect by foliage application, plastic box (Table 20, symbol L); type: in vivo, windgrass (Apera spica-venti); conditions: foliage application, 320 g/ha, 3 weeks after application
Outline: as §2

blackgrass [12] = experiment: Test Example 5: herbicidal effect by foliage application, plastic box (Table 20, symbol J); type: in vivo, blackgrass (Alopecurus myosuroides); conditions: foliage application, 320 g/ha, 3 weeks after application
Outline: as §2

green foxtail [13] = experiment: Test Example 4: herbicidal effect by soil treatment (Table 19, symbol G); type: in vivo, green foxtail (Setaria viridis); conditions: 320 g/ha
Outline: as §4

persian speedwell [14] = experiment: Test Example 5: herbicidal effect by foliage application, plastic box (Table 20, symbol R); type: in vivo, Persian speedwell (Veronica persica); conditions: foliage application, 320 g/ha, 3 weeks after application
Outline: as §2

| SMILES | herbicidal effect rating, B: Japanese bulrush (Japanese bulrush [1]) | effect on southern crabgrass (F) (southern crabgrass) | effect on green foxtail (G) (green foxtail [2]) | Herbicidal effect on B: Japanese bulrush (grade 0-5) (Japanese bulrush [3]) | herbicidal effect rating, C: oval-leafed pondweed (oval-leafed pondweed [4]) | effect on velvetleaf (M) (velvetleaf [5]) | Herbicidal effect on C: oval-leafed pondweed (grade 0-5) (oval-leafed pondweed [6]) | herbicidal effect rating, R: persian speedwell (persian speedwell [7]) | herbicidal effect rating, H: barnyard grass (barnyard grass [8]) | herbicidal effect on H (barnyard grass), rating 0-5 (barnyard grass [9]) | herbicidal effect rating, N: redroot pigweed (redroot pigweed) | herbicidal effect rating, M: velvetleaf (velvetleaf [10]) | herbicidal effect rating, J: blackgrass (blackgrass [11]) | effect on windgrass (L) (windgrass) | effect on blackgrass (J) (blackgrass [12]) | herbicidal effect rating, G: green foxtail (green foxtail [13]) | effect on persian speedwell (R) (persian speedwell [14]) |
| --- | --- | --- | --- | --- | --- | --- | --- | --- | --- | --- | --- | --- | --- | --- | --- | --- | --- |
| C=Cc1ccc(-c2sc3ccc(F)cc3c2-c2c(O)c(C)nn(C)c2=O)cc1 [2-018] | 2 (Herbicidal rate of 20% or more and less than 40%) | 1 (Herbicidal rate of 5% or more and less than 20%) | 5 (Herbicidal rate of 90% or more (almost completely withered)) | 3 (Herbicidal rate of 40% or more and less than 70%) | 3 (Herbicidal rate of 40% or more and less than 70%) | 5 (Herbicidal rate of 90% or more (almost completely withered)) | 0 (Herbicidal rate of 5% or less (almost no effect)) | 4 (Herbicidal rate of 70% or more and less than 90%) | 0 (Herbicidal rate of 5% or less (almost no effect)) | 5 (Herbicidal rate of 90% or more (almost completely withered)) | 4 (Herbicidal rate of 70% or more and less than 90%) | 1 (Herbicidal rate of 5% or more and less than 20%) | 0 (Herbicidal rate of 5% or less (almost no effect)) | 5 (Herbicidal rate of 90% or more (almost completely withered)) | 1 (Herbicidal rate of 5% or more and less than 20%) | 1 (Herbicidal rate of 5% or more and less than 20%) | 5 (Herbicidal rate of 90% or more (almost completely withered)) |
| COCc1ccc(-c2sc3ccc(F)cc3c2-c2c(O)c(C)nn(C)c2=O)cc1 [2-022] | 2 (Herbicidal rate of 20% or more and less than 40%) | 5 (Herbicidal rate of 90% or more (almost completely withered)) | 5 (Herbicidal rate of 90% or more (almost completely withered)) | 5 (Herbicidal rate of 90% or more (almost completely withered)) | 4 (Herbicidal rate of 70% or more and less than 90%) | 5 (Herbicidal rate of 90% or more (almost completely withered)) | 5 (Herbicidal rate of 90% or more (almost completely withered)) | 5 (Herbicidal rate of 90% or more (almost completely withered)) | 5 (Herbicidal rate of 90% or more (almost completely withered)) | 5 (Herbicidal rate of 90% or more (almost completely withered)) | 5 (Herbicidal rate of 90% or more (almost completely withered)) | 4 (Herbicidal rate of 70% or more and less than 90%) | 4 (Herbicidal rate of 70% or more and less than 90%) | 4 (Herbicidal rate of 70% or more and less than 90%) | 4 (Herbicidal rate of 70% or more and less than 90%) | 5 (Herbicidal rate of 90% or more (almost completely withered)) | 5 (Herbicidal rate of 90% or more (almost completely withered)) |
| CCCC(=O)Oc1c(C)nn(C)c(=O)c1-c1c(-c2ccc(COC)cc2)sc2ccc(F)cc12 [2-023] | 0 (Herbicidal rate of 5% or less (almost no effect)) | 5 (Herbicidal rate of 90% or more (almost completely withered)) | 5 (Herbicidal rate of 90% or more (almost completely withered)) | 0 (Herbicidal rate of 5% or less (almost no effect)) | 0 (Herbicidal rate of 5% or less (almost no effect)) | 5 (Herbicidal rate of 90% or more (almost completely withered)) | 0 (Herbicidal rate of 5% or less (almost no effect)) | 5 (Herbicidal rate of 90% or more (almost completely withered)) | 4 (Herbicidal rate of 70% or more and less than 90%) | 5 (Herbicidal rate of 90% or more (almost completely withered)) | 5 (Herbicidal rate of 90% or more (almost completely withered)) | 2 (Herbicidal rate of 20% or more and less than 40%) | 3 (Herbicidal rate of 40% or more and less than 70%) | 4 (Herbicidal rate of 70% or more and less than 90%) | 4 (Herbicidal rate of 70% or more and less than 90%) | 5 (Herbicidal rate of 90% or more (almost completely withered)) | 5 (Herbicidal rate of 90% or more (almost completely withered)) |
| CCCC(=O)Oc1c(C)nn(C)c(=O)c1-c1c(-c2ccc(OC)cc2)sc2ccc(F)cc12 [2-027] | 4 (Herbicidal rate of 70% or more and less than 90%) | 4 (Herbicidal rate of 70% or more and less than 90%) | 4 (Herbicidal rate of 70% or more and less than 90%) | 5 (Herbicidal rate of 90% or more (almost completely withered)) | 5 (Herbicidal rate of 90% or more (almost completely withered)) | 5 (Herbicidal rate of 90% or more (almost completely withered)) | 4 (Herbicidal rate of 70% or more and less than 90%) | 5 (Herbicidal rate of 90% or more (almost completely withered)) | 4 (Herbicidal rate of 70% or more and less than 90%) | 5 (Herbicidal rate of 90% or more (almost completely withered)) | 5 (Herbicidal rate of 90% or more (almost completely withered)) | 3 (Herbicidal rate of 40% or more and less than 70%) | 0 (Herbicidal rate of 5% or less (almost no effect)) | 0 (Herbicidal rate of 5% or less (almost no effect)) | 2 (Herbicidal rate of 20% or more and less than 40%) | 4 (Herbicidal rate of 70% or more and less than 90%) | 5 (Herbicidal rate of 90% or more (almost completely withered)) |
